Data as given in patent EP3233044B1, “ANHYDROUS COSMETIC COMPOSITION FOR TOPICAL APPLICATION IN INTIMATE AREAS” (The Procter & Gamble Company, priority 2014, dated 2016).

How the values were obtained:
[1] = Solubility of Vitamin B5 derivatives in anhydrous stick formulations; type: physicochemical
Source text: Additional considerations regarding exemplary Vitamin B5 derivatives may apply. For example, in order to deliver Vitamin B5 (or a derivative thereof) from an anhydrous, hydrophobic, glycol free and antiperspirant free cosmetic stick, a corresponding matrix soluble form or derivative of Vitamin B5 must be used to achieve the desired benefits of hair softening, shave bump reduction and wound healing from shave cut damage. For example, if an incompatible or insoluble form of Vitamin B5 is used, such as panthenol, this will not form a homogenous one phase solution when the ingredients are blended and heated together from the melt.
As such, the Vitamin B5 derivative utilized should be soluble in the anhydrous, hydrophobic, glycol free and antiperspirant free matrix.

[2] = Thiol Vapor Pressure Suppression (TVPS) index, headspace butanethiol by zNose fast GC; type: physicochemical; conditions: 5 µl compound vs 100 µl of 1% v/v butanethiol in ethanol, 37 °C for 4 hours; percentage reduction in butanethiol peak area
Source text: Thiol Vapor Pressure Suppression (TVPS) index is a measure of the reduction in butanethiol concentration in the headspace by a compound, as measured using a fast GC instrument, the zNose 7100 (Electronic Sensor Technologies, Newbury Park, CA). Before any measurements the instrument is calibrated according to manufacturer's instructions under the same experimental settings. The instrument has a DB-5 column (EST Part No.SYS7100C5, Electronic Sensor Technologies, Newbury Park, CA) 1 m in length, 0.25 µm phase thickness, and 0.25mm in diameter. […]
TVPS of a compound is measured in the following way: 100 µl ± 1 µl of a 1% v/v butanethiol (99%, purity) solution in ethanol (200 proof) is added into a 1 ml vial (8 x 40 mm). […]
The amount of butanethiol in the headspace is measured from the area of the peak on the chromatograph for butanethiol (ABtSH,Rx). To calculate the percentage of butanethiol reduction in the headspace, a control with the butanethiol solution without the volatile material is run in the same manner and the area is measured as well (ABtSH,C). TVPS is then measured as the percentage reduction in butanethiol area calculated using the following formula: TVPS = (ABtSH,C −ABtSH,Rx)/(ABtSH,C) × 100 [formula]

| Solublility in hydrophobic Anhydrous, glycol free, antiperspirant free Stick formulations [1] | Compound | TVPS [2] |
| --- | --- | --- |
| Soluble | CC(=O)OCCCNC(=O)[C@H](OC(C)=O)C(C)(C)COC(C)=O [Panthenyl Triacetate] |  |
| Soluble | Panthenyl Ethyl Ether |  |
|  | CC(C)c1cccc(C(C)CC=O)c1 (stereo not drawn) [Florhydral] | 50.5 |
